Results on 1 molecule are retold here after patent US20250345253A1 (priority 2024, published 2025).

This assay can be described thus: In vitro whitening and cleaning of stained test samples.

As for `O=c1nc([O-])n(Cl)c(=O)n1Cl.[Na+]` [dichloroisocyanurate], the “Whitening and cleaning performance versus hydrogen peroxide solutions and salts” value (compared with cleaning solutions of up to 25% hydrogen peroxide and hydrogen peroxide salts (sodium perborate)) is “outperformed both hydrogen peroxide cleaning solutions of up to 25% hydrogen peroxide and hydrogen peroxide salts (sodium perborate)”. Under “compared with other cleaning formulations containing hydrogen peroxide”, the “Whitening and cleaning of stained test samples” value was “whitened and cleaned stained test samples better than other cleaning formulations containing hydrogen peroxide”.
